According to patent EP1262190A1, “RFRP-CONTAINING PROLACTIN SECRETION REGULATORY AGENT” (Takeda Chemical Industries, Ltd., priority 2000, dated 2001):
Where no end group is shown, it is not given here.

Experiments:
[1] = target: T1, r0T7T022L receptor-expressing CHO cells (Rattus norvegicus, UniProt Q9EP86); test: Reaction of receptor-expressing CHO cells with peptides in the cytosensor (acidification rate); type: cell-based; settings: peptide exposure for 7 minutes and 2 seconds, FIG. 8
T1 construct: expressed in transfected cells; host or cells: CHO cells
Text: The r0T7T022L receptor-expressing CHO cells obtained in REFERENCE EXAMPLE 7 (2) above were inoculated on capsules for cytosensor in 2.7 x 10^5 cells/capsule. After culturing overnight, the cytosensor was mounted to a work station for the cytosensor. A medium for assay (low buffered RMPI1640 medium supplemented with 0.1% bovine serum albumin), that was set in the flow path of the cytosensor, was supplied to the cells in a pump cycle of ON (80 seconds) and OFF (40 seconds). A rate of change in […] from 8 to 30 seconds after the pump stopped was calculated as an acidification rate. A change of the acidification rate with passage of time was monitored; when stable reading was obtained, the flow path was switched to expose each peptide to the cells for 7 minutes and 2 seconds. In the acidification rate of each well, the data for 3 cycles immediately before the peptide exposure was made 100% for standardization.

[2] = target: T2, Human 0T7T022 receptor-expressing CHO cells (Homo sapiens, UniProt Q9GZQ6); test: Agonist activity of RF amide peptides: inhibition of forskolin-increased cAMP in human 0T7T022 receptor-expressing CHO cells; type: cell-based; settings: 1 µM forskolin, 37°C for 30 minutes, FIG. 14
T2 construct: expressed in transfected cells; host or cells: CHO cells
Description: Human 0T7T022 receptor-expressing CHO cells obtained by a modification of the method described in WO 00/29441 were inoculated on a 24-well plate in a concentration of 3 x 10^5 cells/well. After incubation overnight, the cells were rinsed with Hanks' buffer (HBSS) supplemented with 0.05% BSA and 0.2 mM IBMX, and then preincubated at 37°C for 30 minutes in the same buffer. Next, the buffer was exchanged by Hanks' buffer (HBSS) supplemented with 0.05% BSA and 0.2 mM IBMX, or HBSS further added with 1 µM forskolin only, or HBSS added with 1 µM forskolin and peptide of various concentrations, followed by incubation at 37°C for 30 minutes. After completion of the incubation, cAMP in the cells of each well was extracted and quantified according to the method of cAMP EIA Kit (Amersham Inc.). An inhibition rate of the increased cAMP level in the cells by the forskolin treatment was calculated with the respective concentrations of the peptide.

[3] = target: T2, Human 0T7T022 receptor-expressing CHO cells; test: Effect of pertussis toxin on activation of human 0T7T022 receptor by RFRP peptide (cAMP production inhibition); type: cell-based; settings: 0.1 µM peptide, 1 µM forskolin, cells treated with 100 ng/ml pertussis toxin, FIG. 15
Description: Human 0T7T022 receptor-expressing CHO cells obtained in EXAMPLE 8 were inoculated on a 24-well plate in a concentration of 1 x 10^5 cells/well. After culturing overnight, the medium was exchanged by a medium added with 100 ng/ml pertussis toxin (Sigma, Inc.) or with a control medium followed by further incubation overnight. The cells were rinsed with Hanks' buffer (HBSS) supplemented with 0.05% BSA and 0.2 mM IBMX and then preincubated at 37°C for 30 minutes in the same buffer. Next, the cells were incubated at 37°C for 30 minutes after the buffer was exchanged by Hanks' buffer alone (HBSS) supplemented with 0.05% BSA and 0.2 mM IBMX (black column), or by HBSS further added with 1 µM forskolin only (white column), or by HBSS added with 1 µM forskolin and 0.1 µM RFRP-1-12 (peptide having the 81 (Met) to 92 (Phe) amino acid sequence in SEQ ID NO:1) (hatched column). After completion of the incubation, cAMP in the cells of each well was extracted and quantified according to the method of cAMP EIA Kit (Amersham, Inc.).

[4] = system: pituitary hormone level in plasma; test: Effect of administration into the third ventricle on pituitary hormone level in plasma (radioimmunoassay); type: in vivo, Wistar rats; settings: 10 nmols into the third ventricle; for plasma prolactin level: vs PBS control

T2 sequence (Q9GZQ6 whole entry): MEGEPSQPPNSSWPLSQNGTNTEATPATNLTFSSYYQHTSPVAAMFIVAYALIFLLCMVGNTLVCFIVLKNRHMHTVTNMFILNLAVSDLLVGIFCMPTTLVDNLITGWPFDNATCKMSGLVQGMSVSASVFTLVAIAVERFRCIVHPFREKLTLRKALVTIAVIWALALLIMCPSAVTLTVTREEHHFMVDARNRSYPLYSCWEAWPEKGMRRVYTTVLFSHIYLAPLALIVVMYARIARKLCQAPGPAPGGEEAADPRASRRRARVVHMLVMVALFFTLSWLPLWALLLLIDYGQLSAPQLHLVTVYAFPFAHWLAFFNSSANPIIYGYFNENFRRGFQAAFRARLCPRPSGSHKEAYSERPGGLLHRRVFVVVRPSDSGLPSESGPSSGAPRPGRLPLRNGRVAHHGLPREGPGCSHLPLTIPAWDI
T1 sequence (Q9EP86 whole entry): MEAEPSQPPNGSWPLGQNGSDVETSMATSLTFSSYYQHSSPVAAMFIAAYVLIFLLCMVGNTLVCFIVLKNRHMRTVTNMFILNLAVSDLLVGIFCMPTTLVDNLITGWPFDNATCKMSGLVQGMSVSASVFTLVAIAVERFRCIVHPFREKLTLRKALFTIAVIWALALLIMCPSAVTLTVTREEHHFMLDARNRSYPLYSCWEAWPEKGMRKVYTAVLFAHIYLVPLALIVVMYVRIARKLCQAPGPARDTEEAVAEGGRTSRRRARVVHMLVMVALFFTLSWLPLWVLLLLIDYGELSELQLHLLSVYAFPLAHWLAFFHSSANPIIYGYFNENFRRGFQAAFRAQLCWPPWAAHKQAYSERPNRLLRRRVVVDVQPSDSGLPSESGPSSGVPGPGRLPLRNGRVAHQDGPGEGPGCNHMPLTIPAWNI

Molecule: CC(C)C[C@H](NC(=O)[C@H](CC(N)=O)NC(=O)[C@@H]1CCCN1C(=O)[C@@H](N)C(C)C)C(=O)N1CCC[C@H]1C(=O)N[C@@H](CCC(N)=O)C(=O)N[C@@H](CCCNC(=N)N)C(=O)N[C@@H](Cc1ccccc1)C(N)=O
- reaction of r0T7T022L-expressing CHO cells (acidification rate) [1]: strongly showed dose-dependent reaction

Molecule: rRFRP-1-37: peptide having the 58 (Ser) to 94 (Phe) amino acid sequence in SEQ ID NO:50 (SVTFQELKDWGAKKDIKMSPAPANKVPHSAANLPLRF; UniProt Q9ESQ9 58-94, looked up, fragment)
- ED50 levels (inhibition rate of the increased cAMP level in the cells by the forskolin treatment) [2]: 30 nM

Molecule: Asn-Pro-Phe-Phe [NPFF, reference compound]
- ED50 levels (inhibition rate of the increased cAMP level in the cells by the forskolin treatment) [2]: 140 nM

Molecule: Pro-Gln-Arg-Phe-NH2 (PQRF-NH2) [PQRFamide, reference compound]
- ED50 levels (inhibition rate of the increased cAMP level in the cells by the forskolin treatment) [2]: ≥ 1000 nM

Molecule: MPHSFANLPLRF-NH2
- cAMP production inhibiting activity [3]: lost
- reaction of r0T7T022L-expressing CHO cells (acidification rate) [1]: strongly showed dose-dependent reaction
- level of ACTH in plasma [4]: none showed any significant change
- level of GH in plasma [4]: none showed any significant change
- level of LH in plasma [4]: none showed any significant change
- level of TSH in plasma [4]: none showed any significant change
- plasma prolactin level ([4]; 10 minutes after administration): tended to increase
- plasma prolactin level ([4]; 20 minutes after administration): significantly increased
- plasma prolactin level ([4]; 30 minutes after administration): significantly increased
- plasma prolactin level ([4]; 40 minutes after administration): significantly increased
- plasma prolactin level ([4]; 60 minutes after administration): a significant difference was noted

Molecule: hRFRP-1-37: peptide having the 56 (Ser) to 92 (Phe) amino acid sequence in SEQ ID NO:1 (SLNFEELKDWGPKNVIKMSTPAVNKMPHSFANLPLRF; UniProt Q9HCQ7 56-92, looked up, fragment)
- ED50 levels (inhibition rate of the increased cAMP level in the cells by the forskolin treatment) [2]: 21 nM
